Reference: patent US12098144B2, “Piperazine indazole glucocorticoid receptor antagonists” (Corcept Therapeutics Incorporated, priority 2021, dated 2024)

These compounds were tested against T1, glucocorticoid receptor (Homo sapiens, UniProt P04150) (assay: Hep G2 TAT Ki: inhibition of dexamethasone-induced TAT in HepG2 cells (96 well)). Conditions: challenge of 100 nM dexamethasone, IC50 converted to Ki by Cheng and Prusoff equation.
T1 construct: endogenous in cells; ATCC cat
T1 sequence (P04150 1-777): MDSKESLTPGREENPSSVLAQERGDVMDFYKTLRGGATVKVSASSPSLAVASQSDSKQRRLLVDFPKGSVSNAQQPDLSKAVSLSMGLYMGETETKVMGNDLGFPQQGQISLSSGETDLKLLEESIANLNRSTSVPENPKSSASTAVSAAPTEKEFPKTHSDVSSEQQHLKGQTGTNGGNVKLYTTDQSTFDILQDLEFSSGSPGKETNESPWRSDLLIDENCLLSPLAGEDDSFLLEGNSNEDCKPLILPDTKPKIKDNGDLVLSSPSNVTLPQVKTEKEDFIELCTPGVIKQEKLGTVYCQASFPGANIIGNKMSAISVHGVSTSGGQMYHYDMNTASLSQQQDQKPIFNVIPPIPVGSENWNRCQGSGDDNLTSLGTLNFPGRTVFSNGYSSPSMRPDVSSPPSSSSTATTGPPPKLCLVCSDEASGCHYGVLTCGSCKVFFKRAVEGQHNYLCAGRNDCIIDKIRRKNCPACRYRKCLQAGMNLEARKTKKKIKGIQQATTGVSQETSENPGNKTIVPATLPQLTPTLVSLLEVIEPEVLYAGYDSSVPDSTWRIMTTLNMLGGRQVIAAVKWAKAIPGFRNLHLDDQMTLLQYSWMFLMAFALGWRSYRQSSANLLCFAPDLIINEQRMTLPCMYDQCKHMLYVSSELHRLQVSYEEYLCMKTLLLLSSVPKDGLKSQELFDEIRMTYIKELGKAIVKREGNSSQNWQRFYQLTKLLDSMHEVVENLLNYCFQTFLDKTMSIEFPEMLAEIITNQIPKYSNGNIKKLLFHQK
Type: cell-based
Procedure, shortened: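 Cells lysed 15 min at 4 °C; TAT enzyme reaction 2 h at 37 °C, stopped with KOH, 30 min further at 37 °C. Inhibition fitted to 4-parameter logistic.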
A Ki of 24 nM was found for CO[C@H]1C[C@@H](CN2CCN(S(=O)(=O)c3csc(C)n3)CC2c2cc3cnn(-c4ccc(F)cc4)c3cc2C)C1 (single isomer, unassigned) [Example 171, 4-((3-(1-(4-fluorophenyl)-6-methyl-1H-indazol-5-yl)-4-((3-methoxycyclobutyl)methyl)piperazin-1-yl)sulfonyl)-2-methylthiazole] in this work.
A Ki of 110 nM was found for CC[C@@H](C)N1CCN(S(=O)(=O)c2cnn(C)n2)C[C@@H]1c1cc2cnn(-c3ccc(F)cc3)c2cc1C (stereo in doubt) [Example 122, 5-(1-(sec-butyl)-4-((2-methyl-2H-1,2,3-triazol-4-yl)sulfonyl)piperazin-2-yl)-1-(4-fluorophenyl)-6-methyl-1H-indazole] in this work.
A Ki of 81 nM was found for Cc1cc2c(cnn2-c2ccc(F)cc2)cc1C1CN(S(=O)(=O)c2cnn(C)n2)CCN1Cc1ccccc1 (stereo not drawn) [Example 2, 5-(1-benzyl-4-((2-methyl-2H-1,2,3-triazol-4-yl)sulfonyl)piperazin-2-yl)-1-(4-fluorophenyl)-6-methyl-1H-indazole] in this work.
A Ki of 85 nM was found for COc1ccc(CN2CCN(S(=O)(=O)c3cnn(C)n3)CC2c2cc3cnn(-c4ccc(F)cc4)c3cc2C)cc1 (stereo not drawn) [Example 3, 1-(4-fluorophenyl)-5-(1-(4-methoxybenzyl)-4-((2-methyl-2H-1,2,3-triazol-4-yl)sulfonyl)piperazin-2-yl)-6-methyl-1H-indazole] in this work.
A Ki of 41 nM was found for Cc1cc2c(cnn2-c2ccc(F)cc2)cc1C1CN(S(=O)(=O)c2cnn(C)n2)CCN1CC(C)C (stereo not drawn) [Example 4, 1-(4-fluorophenyl)-5-(1-isobutyl-4-((2-methyl-2H-1,2,3-triazol-4-yl)sulfonyl)piperazin-2-yl)-6-methyl-1H-indazole] in this work.
A Ki of 62 nM was found for Cc1cc2c(cnn2-c2ccc(F)cc2)cc1C1CN(S(=O)(=O)c2cnn(C)c2)CCN1CC(C)C (stereo not drawn) [Example 7, 1-(4-fluorophenyl)-5-(1-isobutyl-4-((1-methyl-1H-pyrazol-4-yl)sulfonyl)piperazin-2-yl)-6-methyl-1H-indazole] in this work.
A Ki of 66 nM was found for Cc1cc2c(cnn2-c2ccc(F)cc2)cc1C1CN(S(=O)(=O)C2CC2)CCN1CC(C)C (stereo not drawn) [Example 8, 5-(4-(cyclopropylsulfonyl)-1-isobutylpiperazin-2-yl)-1-(4-fluorophenyl)-6-methyl-1H-indazole] in this work.
A Ki of 72 nM was found for COCCn1cc(S(=O)(=O)N2CCN(CC(C)C)C(c3cc4cnn(-c5ccc(F)cc5)c4cc3C)C2)cn1 (stereo not drawn) [Example 9, 1-(4-fluorophenyl)-5-(1-isobutyl-4-((1-(2-methoxyethyl)-1H-pyrazol-4-yl)sulfonyl)piperazin-2-yl)-6-methyl-1H-indazole] in this work.
A Ki of 68 nM was found for Cc1cc2c(cnn2-c2ccc(F)cc2)cc1C1CN(S(=O)(=O)c2cnn(C)n2)CCN1CC1CC1 (stereo not drawn) [Example 12, 5-(1-(cyclopropylmethyl)-4-((2-methyl-2H-1,2,3-triazol-4-yl)sulfonyl)piperazin-2-yl)-1-(4-fluorophenyl)-6-methyl-1H-indazole] in this work.
A Ki of 97 nM was found for Cc1cc2c(cnn2-c2ccc(F)cc2)cc1C1CN(S(=O)(=O)c2cnn(C)n2)CCN1CC1CCOCC1 (stereo not drawn) [Example 13, 1-(4-fluorophenyl)-6-methyl-5-(4-((2-methyl-2H-1,2,3-triazol-4-yl)sulfonyl)-1-((tetrahydro-2H-pyran-4-yl)methyl)piperazin-2-yl)-1H-indazole] in this work.
A Ki of 62 nM was found for Cc1cc2c(cnn2-c2ccc(F)cc2)cc1C1CN(S(=O)(=O)c2cnn(C)n2)CCN1CC1CC1C (stereo not drawn) [Example 14, 1-(4-fluorophenyl)-6-methyl-5-(4-((2-methyl-2H-1,2,3-triazol-4-yl)sulfonyl)-1-((2-methylcyclopropyl)methyl)piperazin-2-yl)-1H-indazole] in this work.
A Ki of 260 nM was found for CCN1CCN(S(=O)(=O)c2cnn(C)n2)CC1c1cc2cnn(-c3ccc(F)cc3)c2cc1C (stereo not drawn) [Example 15, 5-(1-ethyl-4-((2-methyl-2H-1,2,3-triazol-4-yl)sulfonyl)piperazin-2-yl)-1-(4-fluorophenyl)-6-methyl-1H-indazole] in this work.
A Ki of 520 nM was found for Cc1cc2c(cnn2-c2ccc(F)cc2)cc1C1CN(S(=O)(=O)c2cnn(C)n2)CCN1CC1COC1 (stereo not drawn) [Example 16, 1-(4-fluorophenyl)-6-methyl-5-(4-((2-methyl-2H-1,2,3-triazol-4-yl)sulfonyl)-1-(oxetan-3-ylmethyl)piperazin-2-yl)-1H-indazole] in this work.
A Ki of 110 nM was found for CC(C)=CCN1CCN(S(=O)(=O)c2cnn(C)n2)CC1c1cc2cnn(-c3ccc(F)cc3)c2cc1C (stereo not drawn) [Example 17, 1-(4-fluorophenyl)-6-methyl-5-(4-((2-methyl-2H-1,2,3-triazol-4-yl)sulfonyl)-1-(3-methylbut-2-en-1-yl)piperazin-2-yl)-1H-indazole] in this work.
A Ki of 330 nM was found for Cc1cc2c(cnn2-c2ccc(F)cc2)cc1C1CN(S(=O)(=O)c2cnn(C)n2)CCN1Cc1cccnc1 (stereo not drawn) [Example 18, 1-(4-fluorophenyl)-6-methyl-5-(4-((2-methyl-2H-1,2,3-triazol-4-yl)sulfonyl)-1-(pyridin-3-ylmethyl)piperazin-2-yl)-1H-indazole] in this work.
A Ki of 140 nM was found for Cc1cc2c(cnn2-c2ccc(F)cc2)cc1C1CN(S(=O)(=O)c2cnn(C)n2)CCN1C(C)C (stereo not drawn) [Example 19, 1-(4-fluorophenyl)-5-(1-isopropyl-4-((2-methyl-2H-1,2,3-triazol-4-yl)sulfonyl)piperazin-2-yl)-6-methyl-1H-indazole] in this work.
A Ki of 57 nM was found for COc1cc2c(cnn2-c2ccc(F)cc2)cc1C1CN(S(=O)(=O)c2cnn(C)n2)CCN1CC(C)C (stereo not drawn) [Example 22, 1-(4-fluorophenyl)-5-(1-isobutyl-4-((2-methyl-2H-1,2,3-triazol-4-yl)sulfonyl)piperazin-2-yl)-6-methoxy-1H-indazole] in this work.
A Ki of 73 nM was found for CC(C)CN1CCN(S(=O)(=O)c2cnn(C)n2)CC1c1cc2cnn(-c3ccc(F)cc3)c2cc1Cl (stereo not drawn) [Example 24, 6-chloro-1-(4-fluorophenyl)-5-(1-isobutyl-4-((2-methyl-2H-1,2,3-triazol-4-yl)sulfonyl)piperazin-2-yl)-1H-indazole] in this work.
A Ki of 19 nM was found for Cc1cc2c(cnn2-c2ccc(F)cc2)cc1[C@@H]1CN(S(=O)(=O)c2cnn(C)n2)CCN1C[C@@H](C)C(F)(F)F [Example 32, 1-(4-fluorophenyl)-6-methyl-5-((R)-4-((2-methyl-2H-1,2,3-triazol-4-yl)sulfonyl)-1-((R)-3,3,3-trifluoro-2-methylpropyl)piperazin-2-yl)-1H-indazole] in this work.
A Ki of 430 nM was found for CC(=O)N1CCN(S(=O)(=O)c2cnn(C)n2)CC1c1cc2cnn(-c3ccc(F)cc3)c2cc1C (stereo not drawn) [Example 34, 1-(2-(1-(4-fluorophenyl)-6-methyl-1H-indazol-5-yl)-4-((2-methyl-2H-1,2,3-triazol-4-yl)sulfonyl)piperazin-1-yl)ethan-1-one] in this work.
A Ki of 770 nM was found for Cc1cc2c(cnn2-c2ccc(F)cc2)cc1C1CN(S(=O)(=O)c2cnn(C)n2)CCN1C(=O)C(C)C (stereo not drawn) [Example 35, 1-(2-(1-(4-fluorophenyl)-6-methyl-1H-indazol-5-yl)-4-((2-methyl-2H-1,2,3-triazol-4-yl)sulfonyl)piperazin-1-yl)-2-methylpropan-1-one] in this work.
A Ki of 50 nM was found for Cc1cc2c(cnn2-c2ccc(F)cc2)cc1C1CN(S(=O)(=O)c2cnn(C3CCOCC3)c2)CCN1CC(C)C (stereo not drawn) [Example 36, 1-(4-fluorophenyl)-5-(1-isobutyl-4-((1-(tetrahydro-2H-pyran-4-yl)-1H-pyrazol-4-yl)sulfonyl)piperazin-2-yl)-6-methyl-1H-indazole] in this work.
A Ki of 76 nM was found for Cc1cc2c(cnn2-c2ccc(F)cc2)cc1C1CN(S(=O)(=O)c2cnn(C(C)C)n2)CCN1CC(C)C (stereo not drawn) [Example 37, 1-(4-fluorophenyl)-5-(1-isobutyl-4-((2-isopropyl-2H-1,2,3-triazol-4-yl)sulfonyl)piperazin-2-yl)-6-methyl-1H-indazole] in this work.
A Ki of 46 nM was found for CCn1cc(S(=O)(=O)N2CCN(CC(C)C)C(c3cc4cnn(-c5ccc(F)cc5)c4cc3C)C2)cn1 (stereo not drawn) [Example 38, 5-(4-((1-ethyl-1H-pyrazol-4-yl)sulfonyl)-1-isobutylpiperazin-2-yl)-1-(4-fluorophenyl)-6-methyl-1H-indazole] in this work.
A Ki of 57 nM was found for Cc1cc2c(cnn2-c2ccc(F)cc2)cc1C1CN(S(C)(=O)=O)CCN1CC(C)C (stereo not drawn) [Example 39, 1-(4-fluorophenyl)-5-(1-isobutyl-4-(methylsulfonyl)piperazin-2-yl)-6-methyl-1H-indazole] in this work.
A Ki of 53 nM was found for CCn1ncc(S(=O)(=O)N2CCN(CC(C)C)C(c3cc4cnn(-c5ccc(F)cc5)c4cc3C)C2)n1 (stereo not drawn) [Example 40, 5-(4-((2-ethyl-2H-1,2,3-triazol-4-yl)sulfonyl)-1-isobutylpiperazin-2-yl)-1-(4-fluorophenyl)-6-methyl-1H-indazole] in this work.
A Ki of 60 nM was found for CCCn1ncc(S(=O)(=O)N2CCN(CC(C)C)C(c3cc4cnn(-c5ccc(F)cc5)c4cc3C)C2)n1 (stereo not drawn) [Example 41, 1-(4-fluorophenyl)-5-(1-isobutyl-4-((2-propyl-2H-1,2,3-triazol-4-yl)sulfonyl)piperazin-2-yl)-6-methyl-1H-indazole] in this work.
